Experimental data as given in ChEMBL document CHEMBL4828744, “Design, synthesis and biological evaluation of pyridinylmethylenepiperidine derivatives as potent 5-HT1F receptor agonists for migraine therapy” (Eur J Med Chem, 2021).
Calls of active or inactive are those of the source. No cut-off for these calls is given here.

Experiments:
[1] = biological target: T1, 5-hydroxytryptamine receptor 1F (Homo sapiens, UniProt P30939); experiment: Agonist activity at 5HT1F receptor (unknown origin) expressed in HEK293 cells measured after 60 mins by Fluo-4AM dye based FLIPR assay; assay type: functional, cell-based; conditions: read-out: IC50 (the source's name)
T1 sequence (P30939 whole entry): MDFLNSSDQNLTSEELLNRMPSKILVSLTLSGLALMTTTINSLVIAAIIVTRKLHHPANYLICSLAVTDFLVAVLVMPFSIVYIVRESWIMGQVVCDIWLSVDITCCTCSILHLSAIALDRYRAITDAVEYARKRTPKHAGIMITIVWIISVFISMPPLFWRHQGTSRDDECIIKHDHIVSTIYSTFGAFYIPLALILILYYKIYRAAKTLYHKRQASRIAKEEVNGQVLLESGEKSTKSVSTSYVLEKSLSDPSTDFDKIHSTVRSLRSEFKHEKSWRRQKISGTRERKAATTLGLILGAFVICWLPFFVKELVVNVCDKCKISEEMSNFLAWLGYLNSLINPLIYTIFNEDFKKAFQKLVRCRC

[2] = Toxicity in NewZealand rabbit Saphenous vein rings assessed as induction of vasoconstriction at 1 to 100 uM; assay type: tissue-based, Oryctolagus cuniculus; conditions: dose 1-100 µM
[3] = Cmax in Sprague-Dawley rat at 5 mg/kg, ig measured for 24 hrs by LC-MS/MS analysis; assay type: ADME, organism-based; design: route intragastric, time 24 hrs, dose 5 mg/kg; conditions: in vivo, po
[4] = Cmax in Sprague-Dawley rat at 1 mg/kg, iv measured for 24 hrs by LC-MS/MS analysis; assay type: ADME, organism-based; design: route intravenous, dose 1 mg/kg, time 24 hrs; conditions: in vivo
[5] = Toxicity in NewZealand rabbit Saphenous vein rings assessed as induction of vasoconstriction at 0.01 to 100 uM; assay type: tissue-based, Oryctolagus cuniculus; conditions: dose 0.01-100 µM
[6] = AUC(0 to t) in Sprague-Dawley rat at 5 mg/kg, ig measured for 24 hrs by LC-MS/MS analysis; assay type: ADME, organism-based; design: time 24 hrs, dose 5 mg/kg; conditions: in vivo, po
Rattus norvegicus [7] = experiment: Antimigraine activity against electrical stimulation of trigeminal ganglion migraine Wistar rat model assessed as reduction in c-Fos-positive cells at 10 ug/kg, po measured after 60 mins by confocal fluorescence microscopic analysis; assay type: functional, organism-based; conditions: dose 10.0 µg/kg
[8] = Volume of distribution at steady state in Sprague-Dawley rat at 1 mg/kg, iv measured for 24 hrs by LC-MS/MS analysis; assay type: ADME, organism-based; conditions: in vivo, read-out: Vdss
[9] = Half life in Sprague-Dawley rat at 5 mg/kg, ig measured for 24 hrs by LC-MS/MS analysis; assay type: ADME, organism-based; conditions: in vivo, po
Rattus norvegicus [10] = experiment: Antimigraine activity against electrical stimulation of trigeminal ganglion migraine Wistar rat model assessed as reduction in dural plasma protein extravasation at 0.01 ug/kg, po measured after 45 mins by confocal fluorescence microscopic analysis; assay type: functional, organism-based; conditions: dose 0.01 µg/kg
[11] = Half life in Sprague-Dawley rat at 1 mg/kg, iv measured for 24 hrs by LC-MS/MS analysis; assay type: ADME, organism-based; conditions: in vivo
[12] = AUC(0 to t) in Sprague-Dawley rat at 1 mg/kg, iv measured for 24 hrs by LC-MS/MS analysis; assay type: ADME, organism-based; design: time 24 hrs, dose 1 mg/kg; conditions: in vivo
[13] = Clearance in Sprague-Dawley rat at 1 mg/kg, iv measured for 24 hrs by LC-MS/MS analysis; assay type: ADME, organism-based; conditions: in vivo
[14] = Bioavailability in Sprague-Dawley rat at 5 mg/kg, ig measured for 24 hrs by LC-MS/MS analysis; assay type: ADME, organism-based; conditions: in vivo, po
[15] = biological target: T2, 5-hydroxytryptamine receptor 1F (Homo sapiens) (UniProt P30939); experiment: Potency index, ratio of lasmiditan EC50 to test compound EC50 for agonist activity at 5HT1F receptor (unknown origin) expressed in HEK293 cells measured after 60 mins by Fluo-4AM dye based FLIPR assay; assay type: functional, cell-based
T2 sequence (whole entry): T1 sequence (P30939 whole entry)

Compound | EC50 [1] | Activity [2] | Cmax [3] | Cmax [4] | Activity [5] | AUC(0-t) at 24 h [6] | Activity (Rattus norvegicus [7]) | Vd [8] | half-life [9] | Activity (Rattus norvegicus [10]) | half-life [11] | AUC(0-t) at 24 h [12] | clearance [13] | bioavailability [14] | Ratio EC50 [15]
O=C(Nc1cccc(C(F)=C2CCN(C(F)(F)F)CC2)n1)c1c(F)cc(F)cc1F | > 10000 nM |  |  |  |  |  |  |  |  |  |  |  |  |  | 
CCN1CCC(=C(F)c2cccc(NC(=O)c3c(F)cc(F)cc3F)n2)CC1 | 178 nM |  |  |  |  |  |  |  |  |  |  |  |  |  | 
CNS(=O)(=O)Cc1ccc2[nH]cc(CCN(C)C)c2c1 [SUMATRIPTAN] |  | Toxic |  |  |  |  |  |  |  |  |  |  |  |  | 
CN1CCC(C(=O)c2cccc(NC(=O)c3c(F)cc(F)cc3F)n2)CC1 [LASMIDITAN] |  |  | 90.9 ng/mL | 28.1 ng/mL | Non-Toxic | 386 ng·h/mL | Active | 32.2 L/kg | 3.38 h | Active | 3.12 h | 105 ng·h/mL | 127 mL/min/kg | 63.2% | 
CN1CCC(=C(F)c2cccc(NC(=O)c3ccc(F)cc3)n2)CC1 | 6.36 nM |  | 34.1 ng/mL | 75.3 ng/mL |  | 157 ng·h/mL |  | 17.3 L/kg | 1.41 h |  | 1.37 h | 104 ng·h/mL | 156 mL/min/kg | 32.5% | 3
CN1CCC(=C(F)c2cccc(NC(=O)c3ccc(F)cn3)n2)CC1 | 24.3 nM |  | 34.7 ng/mL | 94.9 ng/mL |  | 121 ng·h/mL |  | 11 L/kg | 1.24 h |  | 0.924 h | 103 ng·h/mL | 159 mL/min/kg | 23.7% | 
O=C(Nc1cccc(C(F)=C2CCN(C(F)F)CC2)n1)c1c(F)cc(F)cc1F | 813 nM |  |  |  |  |  |  |  |  |  |  |  |  |  | 
O=C(Nc1cccc(C(F)=C2CCN(C3CC3)CC2)n1)c1c(F)cc(F)cc1F | 570 nM |  |  |  |  |  |  |  |  |  |  |  |  |  | 
CN1CCC(=C(F)c2cccc(NC(=O)c3ccc(Cl)cc3F)n2)CC1 | 23.4 nM |  | 23.2 ng/mL | 72.2 ng/mL |  | 105 ng·h/mL |  | 20.1 L/kg | 1.68 h |  | 1.42 h | 90.5 ng·h/mL | 178 mL/min/kg | 26.2% | 3
CN1CCC(=C(F)c2cccc(NC(=O)c3ccc(Cl)cn3)n2)CC1 | 161 nM |  |  |  |  |  |  |  |  |  |  |  |  |  | 
CN1CCC(=C(F)c2cccc(NC(=O)c3ccc(Cl)cc3)n2)CC1 | 29.3 nM |  | 35.7 ng/mL | 61 ng/mL |  | 151 ng·h/mL |  | 20.3 L/kg | 2.41 h |  | 1.6 h | 89.4 ng·h/mL | 180 mL/min/kg | 39% | 3
CN1CCC(=C(F)c2cccc(NC(=O)c3ccc(F)cc3F)n2)CC1 | 4.67 nM |  | 9.71 ng/mL | 74.4 ng/mL |  | 44.6 ng·h/mL |  | 17.7 L/kg | 0.824 h |  | 1.05 h | 70.4 ng·h/mL | 229 mL/min/kg | 12.9% | 3
